# Test system: subjects with moderate-to-severe plaque psoriasis
# Experiment: PASI response, Example 1 16-week dose-ranging study
# Assay type: in vivo, human
# Conditions: Week 16; for PASI 100% Improvement, n subjects / PASI ≥75% Improvement, n subjects / PASI ≥90% Improvement, n subjects / PASI ≥75% Improvement, % subjects / PASI ≥90% Improvement, % subjects: N=2
# Procedure: The Psoriasis Area and Severity Index (PASI) is a system used for assessing and grading the severity of psoriatic lesions and their response to therapy. In the PASI system, the body is divided into four regions: the head, trunk, upper extremities, and lower extremities. Each of these areas is assessed and scored separately for erythema, induration, and scaling, which are each rated on a scale of 0 to 4 and extent of involvement on a scale of 0 to 6. The PASI produces a numeric score (a “PASI score”) that can range from 0 to 72. A higher score indicates more severe disease.
# This was a randomized, double-blind, placebo-controlled, dose-ranging, parallel group, multicenter, interventional study in subjects with moderate-to-severe plaque psoriasis. A target of 240 subjects were enrolled in this study with 40 subjects planned per intervention group.
# Clinician-reported outcomes including Psoriasis Area and Severity Index (PASI), Body Surface Area (BSA), Investigator's Global Assessment (IGA), Nail Psoriasis Area and Severity Index (NAPSI), Fingernail Physician's Global Assessment (f-PGA), Static Physician's Global Assessment of Genitalia (s-PGA-G), Physician's Global Assessment of Hands and/or Feet (hf-PGA), and Scalp Specific Investigator Global Assessment (ss-IGA) were obtained at Week 0, 8, and 16. PASI and IGA were also obtained at Weeks 1, 2, 4, and 12, and at Week 20, four weeks after the administration of the tablets has stopped.
# The primary efficacy endpoint was the proportion of participants achieving a PASI 75 response at Week 16, defined as at least a 75% reduction from baseline in PASI total score.
# For the primary analysis, composite strategy (non-responder imputation) was applied to address intercurrent event #1 (Discontinuation of study intervention due to lack of efficacy or due to an AE of worsening of psoriasis) and #2 (initiation of a protocol-prohibited medication or therapy that could improve psoriasis); and treatment policy strategy (observed data) was applied to intercurrent event #3 (Discontinuation of study intervention due to other reasons). Participants with missing data after application of ICEs are also considered as non-responders.
# In addition to the response analysis, pairwise comparisons of each treatment group versus the placebo group were performed for the primary endpoint of PASI 75 at Week 16. Pairwise comparisons were not adjusted for multiplicity. The Cochran-Mantel-Haenszel chi-square statistic stratified by baseline weight category (≤90 kg, >90 kg) at a 2-sided significance level of 0.05 was used (Table 2).
# [1] = 25 mg BID, peak plasma conc. <Q1
# [2] = 25 mg BID, peak plasma conc. Q1 to <Q2
# [3] = 25 mg BID, peak plasma conc. Q2 to <Q3
# [4] = 25 mg BID, peak plasma conc. ≥Q3
# [5] = 25 mg BID, trough plasma conc <Q1
# [6] = 25 mg BID, trough plasma conc Q1 to <Q2
# [7] = 25 mg BID, trough plasma conc Q2 to <Q3
# [8] = 25 mg BID, trough plasma conc ≥Q3
# [9] = 25 mg QD, peak plasma conc. <Q1
# [10] = 25 mg QD, peak plasma conc. Q1 to <Q2
# [11] = 25 mg QD, peak plasma conc. Q2 to <Q3
# [12] = 25 mg QD, peak plasma conc. ≥Q3
# [13] = 25 mg QD, trough plasma conc <Q1
# [14] = 25 mg QD, trough plasma conc Q1 to <Q2
# [15] = 25 mg QD, trough plasma conc Q2 to <Q3
compound,measurement,setting,value
"CC(=O)NCCCC[C@@H]1NC(=O)[C@H](Cc2c[nH]c3c(C)cccc23)NC(=O)[C@H]([C@@H](C)O)NC(=O)[C@H](CC(N)=O)NC(=O)[C@@H](NC(C)=O)C(C)(C)SSC(C)(C)[C@@H](C(=O)N[C@@H](Cc2ccc(OCCN)cc2)C(=O)N[C@@H](Cc2ccc3ccccc3c2)C(=O)NC2(C(=O)N[C@@H](CCC(=O)O)C(=O)N[C@@H](CC(N)=O)C(=O)N[C@@H](Cc3cccnc3)C(=O)N(C)CC(N)=O)CCOCC2)NC1=O [IL-23 receptor antagonist peptide, Ac-[Pen]*-N-T-[W(7-Me)]-[Lys(Ac)]-[Pen]*-Phe[4-(2-aminoethoxy)]-[2-Nal]-[THP]-E-N-[3-Pal]-Sarc-NH2 (*[Pen]-[Pen]* formdisulfidebond)]",PASI 75 treatment difference vs placebo,25 mg BID,41.9%
same,PASI 90 treatment difference vs placebo,25 mg BID,"24.5% (10.4%,"
same,PASI 100 treatment difference vs placebo,25 mg BID,"9.7% (0.7%,"
same,Subjects achieving PASI 75,25 mg BID,51.2%
same,Subjects achieving PASI 90,25 mg BID,(26.8%)
same,Subjects achieving PASI 100,25 mg BID,(9.8%)
same,"PASI 75, %","25 mg BID, N=41",(51.2) %
same,"PASI 90, %","25 mg BID, N=41",(26.8) %
same,"PASI 100, %","25 mg BID, N=41",(9.8) %
same,"PASI 100% Improvement, n subjects",[1],0
same,"PASI ≥75% Improvement, n subjects",[1],0
same,"PASI ≥90% Improvement, n subjects",[1],0
same,"PASI 100% Improvement, n subjects",[2],0
same,"PASI ≥75% Improvement, % subjects",[2],(100.0%)
same,"PASI ≥75% Improvement, n subjects",[2],2
same,"PASI ≥90% Improvement, n subjects",[2],0
same,"PASI 100% Improvement, n subjects",[3],0
same,"PASI ≥75% Improvement, % subjects",[3],(50.0%)
same,"PASI ≥75% Improvement, n subjects",[3],1
same,"PASI ≥90% Improvement, % subjects",[3],(50.0%)
same,"PASI ≥90% Improvement, n subjects",[3],1
same,"PASI 100% Improvement, n subjects",[4],0
same,"PASI ≥75% Improvement, % subjects",[4],(50.0%)
same,"PASI ≥75% Improvement, n subjects",[4],1
same,"PASI ≥90% Improvement, % subjects",[4],(50.0%)
same,"PASI ≥90% Improvement, n subjects",[4],1
same,"PASI 100% Improvement, subjects",[5],1 (16.7%)
same,"PASI ≥75% Improvement, subjects",[5],3 (50.0%)
same,"PASI ≥90% Improvement, subjects",[5],2 (33.3%)
same,"PASI 100% Improvement, subjects",[6],1 (16.7%)
same,"PASI ≥75% Improvement, subjects",[6],1 (16.7%)
same,"PASI ≥90% Improvement, subjects",[6],1 (16.7%)
same,"PASI 100% Improvement, subjects",[7],0
same,"PASI ≥75% Improvement, subjects",[7],3 (50.0%)
same,"PASI ≥90% Improvement, subjects",[7],2 (33.3%)
same,"PASI 100% Improvement, subjects",[8],2 (33.3%)
same,"PASI ≥75% Improvement, subjects",[8],100.0%
same,"PASI ≥90% Improvement, subjects",[8],3 (50.0%)
same,PASI 75 treatment difference vs placebo,25 mg QD,27.9%
same,PASI 90 treatment difference vs placebo,25 mg QD,"23.3% (9.6%,"
same,PASI 100 treatment difference vs placebo,25 mg QD,"11.6% (2.4%,"
same,Subjects achieving PASI 90,25 mg QD,(25.6%)
same,Subjects achieving PASI 100,25 mg QD,(11.6%)
same,"PASI 75, %","25 mg QD, N=43",(37.2) %
same,"PASI 90, %","25 mg QD, N=43",(25.6) %
same,"PASI 100, %","25 mg QD, N=43",(11.6) %
same,"PASI 100% Improvement, n subjects",[9],0
same,"PASI ≥75% Improvement, % subjects",[9],(50.0%)
same,"PASI ≥75% Improvement, n subjects",[9],1
same,"PASI ≥90% Improvement, % subjects",[9],(50.0%)
same,"PASI ≥90% Improvement, n subjects",[9],1
same,"PASI 100% Improvement, n subjects",[10],0
same,"PASI ≥75% Improvement, % subjects",[10],(50.0%)
same,"PASI ≥75% Improvement, n subjects",[10],1
same,"PASI ≥90% Improvement, % subjects",[10],(50.0%)
same,"PASI ≥90% Improvement, n subjects",[10],1
same,"PASI 100% Improvement, n subjects",[11],0
same,"PASI ≥75% Improvement, % subjects",[11],(50.0%)
same,"PASI ≥75% Improvement, n subjects",[11],1
same,"PASI ≥90% Improvement, % subjects",[11],(50.0%)
same,"PASI ≥90% Improvement, n subjects",[11],1
same,"PASI 100% Improvement, n subjects",[12],0
same,"PASI ≥75% Improvement, % subjects",[12],(50.0%)
same,"PASI ≥75% Improvement, n subjects",[12],1
same,"PASI ≥90% Improvement, % subjects",[12],(50.0%)
same,"PASI ≥90% Improvement, n subjects",[12],1
same,"PASI 100% Improvement, subjects",[13],1 (20.0%)
same,"PASI ≥75% Improvement, subjects",[13],2 (40.0%)
same,"PASI ≥90% Improvement, subjects",[13],2 (40.0%)
same,"PASI 100% Improvement, subjects",[14],1 (16.7%)
same,"PASI ≥75% Improvement, subjects",[14],2 (33.3%)
same,"PASI ≥90% Improvement, subjects",[14],2 (33.3%)
same,"PASI 100% Improvement, subjects",[15],0)
same,"PASI ≥75% Improvement, subjects",[15],2 (40.0%)
same,"PASI ≥90% Improvement, subjects",[15],0
